Residue numbers refer to the chain shown, from its start.
Experiments:
[1] = molecular target: T1, Epac2 (Homo sapiens, UniProt Q8WZA2); test: Epac GEF activity assay (b-GDP dissociation from recombinant Rap1), Epac2; type: biochemical
T1 sequence (Q8WZA2 1-867 isoform Q8WZA2-3): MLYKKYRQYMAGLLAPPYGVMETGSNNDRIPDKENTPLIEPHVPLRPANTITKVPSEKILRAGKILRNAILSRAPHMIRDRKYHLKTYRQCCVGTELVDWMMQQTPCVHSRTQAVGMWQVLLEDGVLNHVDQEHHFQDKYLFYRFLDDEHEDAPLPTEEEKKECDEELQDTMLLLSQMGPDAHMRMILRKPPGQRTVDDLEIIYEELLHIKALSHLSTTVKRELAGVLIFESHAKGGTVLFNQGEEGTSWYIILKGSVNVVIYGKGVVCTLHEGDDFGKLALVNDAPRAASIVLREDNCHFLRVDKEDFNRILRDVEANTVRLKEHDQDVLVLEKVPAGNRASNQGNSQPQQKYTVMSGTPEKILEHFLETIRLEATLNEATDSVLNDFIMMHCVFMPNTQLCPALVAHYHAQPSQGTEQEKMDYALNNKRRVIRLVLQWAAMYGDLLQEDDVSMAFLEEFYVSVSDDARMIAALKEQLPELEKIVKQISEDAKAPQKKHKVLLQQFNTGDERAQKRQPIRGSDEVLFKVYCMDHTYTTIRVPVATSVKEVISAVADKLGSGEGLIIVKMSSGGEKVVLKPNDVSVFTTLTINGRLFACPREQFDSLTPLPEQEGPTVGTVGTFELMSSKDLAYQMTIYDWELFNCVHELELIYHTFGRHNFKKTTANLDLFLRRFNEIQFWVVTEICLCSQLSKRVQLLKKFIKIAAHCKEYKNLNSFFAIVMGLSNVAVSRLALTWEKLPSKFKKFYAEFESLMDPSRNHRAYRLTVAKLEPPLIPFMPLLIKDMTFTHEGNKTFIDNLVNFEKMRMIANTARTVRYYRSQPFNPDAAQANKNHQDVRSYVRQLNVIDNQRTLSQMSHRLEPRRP
Text: (§1) FIGS. 4-8. […] Variations of relative fluorescence units (RFU) were studied as a function of time and fitted to single exponentials.

[2] = molecular target: T2, Epac1-BRET sensor CAMYEL (Homo sapiens, UniProt O95398, F824A/T823A); test: CAMYEL Epac1-BRET sensor assay (cAMP-induced conformational change); type: biochemical; settings: for inhibitory activity on Epac1 activation, structure-activity comments: CAMYEL assay, compared with AM-001; for remaining activity at 20 µM: read-out: BRET ratio variation (% of 100 μM cAMP alone)
T2 construct: made in house; host or cells: Prokaryotic expression vector pQE30-CAMYEL; used as cell extract
T2 sequence (O95398 191-923 T823A/F824A limits assumed): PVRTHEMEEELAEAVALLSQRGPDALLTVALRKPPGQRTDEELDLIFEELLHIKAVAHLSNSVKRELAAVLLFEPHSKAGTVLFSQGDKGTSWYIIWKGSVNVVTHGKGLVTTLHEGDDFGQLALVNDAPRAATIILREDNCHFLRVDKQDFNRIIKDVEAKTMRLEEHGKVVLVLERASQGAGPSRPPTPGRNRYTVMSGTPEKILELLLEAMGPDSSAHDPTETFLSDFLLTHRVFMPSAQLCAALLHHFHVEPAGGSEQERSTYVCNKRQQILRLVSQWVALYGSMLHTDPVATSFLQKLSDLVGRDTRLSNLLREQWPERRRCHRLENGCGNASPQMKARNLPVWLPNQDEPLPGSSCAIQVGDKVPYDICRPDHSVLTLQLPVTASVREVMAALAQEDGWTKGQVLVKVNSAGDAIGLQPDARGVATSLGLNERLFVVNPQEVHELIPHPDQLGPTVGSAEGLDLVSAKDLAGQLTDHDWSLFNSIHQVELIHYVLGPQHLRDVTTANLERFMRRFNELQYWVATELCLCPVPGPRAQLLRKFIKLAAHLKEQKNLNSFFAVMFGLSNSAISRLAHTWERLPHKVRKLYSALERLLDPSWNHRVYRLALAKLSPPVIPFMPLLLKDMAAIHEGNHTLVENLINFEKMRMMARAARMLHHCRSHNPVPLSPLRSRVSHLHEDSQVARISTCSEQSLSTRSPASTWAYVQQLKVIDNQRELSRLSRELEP

[3] = molecular target: T3, Epac1 (Homo sapiens, UniProt O95398); test: Rap1-GTP in HEK293 cells transfected with Epac1; type: cell-based; set-up: expressed in transfected cells; host or cells: HEK293; settings: 10 min; for inhibition of Epac1-induced Rap1 activation: 20 μM, 30 min preincubation, 8-CPT-AM 10 μM
T3 sequence (O95398 1-923): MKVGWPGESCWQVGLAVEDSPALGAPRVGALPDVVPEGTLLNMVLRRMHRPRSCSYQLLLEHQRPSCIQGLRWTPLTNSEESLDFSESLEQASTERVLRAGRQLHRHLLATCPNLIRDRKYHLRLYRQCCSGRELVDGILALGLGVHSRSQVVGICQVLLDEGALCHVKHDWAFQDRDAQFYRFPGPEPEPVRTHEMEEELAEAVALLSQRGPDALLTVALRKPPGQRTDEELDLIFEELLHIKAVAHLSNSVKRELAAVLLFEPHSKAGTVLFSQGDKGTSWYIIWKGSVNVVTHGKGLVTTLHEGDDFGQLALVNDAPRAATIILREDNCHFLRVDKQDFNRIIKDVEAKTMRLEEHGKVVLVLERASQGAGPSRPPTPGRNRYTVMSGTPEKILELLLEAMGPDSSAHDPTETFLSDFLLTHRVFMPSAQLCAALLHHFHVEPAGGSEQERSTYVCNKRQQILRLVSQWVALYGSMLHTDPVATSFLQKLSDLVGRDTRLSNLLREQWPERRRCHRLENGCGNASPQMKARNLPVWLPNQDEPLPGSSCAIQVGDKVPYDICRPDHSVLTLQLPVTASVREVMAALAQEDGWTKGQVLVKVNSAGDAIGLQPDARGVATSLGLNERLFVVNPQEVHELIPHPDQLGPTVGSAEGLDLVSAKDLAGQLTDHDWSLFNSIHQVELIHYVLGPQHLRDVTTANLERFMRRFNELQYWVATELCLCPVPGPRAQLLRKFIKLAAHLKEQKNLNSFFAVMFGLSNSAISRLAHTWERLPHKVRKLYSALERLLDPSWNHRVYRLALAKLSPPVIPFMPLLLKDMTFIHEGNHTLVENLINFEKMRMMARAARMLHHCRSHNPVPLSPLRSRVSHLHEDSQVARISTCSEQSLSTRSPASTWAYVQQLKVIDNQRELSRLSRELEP
Protocol: FIGS. 9-13. Amounts of Rap1-GTP (n=5 in each group, mean±S.E.M) were determined in HEK293 cells transfected with Epac1 (FIGS. 9-11), Epac2A (FIG. 12) or Epac2B (FIG. 13). Cells were preincubated or not with AM-001 (FIGS. 9, 12, and 13), AM-002 (FIG. 10) or AM-003 (FIG. 11) (20 μM, 30 min) and were then treated or not with 8-CPT-AM (10 μM for Epac1 activation and 20 μM for Epac2A activation) or S-220 (50 μM for Epac2B activation) for 10 min. ESI-05 was used as positive control of Epac2A inhibition. Representative immunoblots are shown. […], *[…], ***p<0.001, ****p<0.0001, versus indicated values, one way ANOVA, Bonferroni comparison test.
Human Embryonic Kidney cells line (HEK293): HEK293 cells were maintained is in minimal essential medium with FBS (10%) and penicillin-streptomycin (1%). All media, sera, and antibiotics used in cell culture were purchased from Invitrogen.
The human Epac1/Epac2 expression vector was a gift from Dr J. L. Bos. Cells were transfected using Lipofectamine 2000 (Invitrogen) according to the manufacturer's instructions. HEK293 cells were maintained in MEM with FBS (Foetal Bovine Serum; 10%) and penicillin-streptomycin (1%). All media, sera and antibiotics used in cell culture were purchased from Invitrogen (Cergy Pontoise, France). Transient transfection experiments were performed with Lipofectamine 2000 (Invitrogen Life Technologies) in the presence of various amounts of plasmid constructs according to the manufacturer's instructions.
This cell line is commonly used for the evaluation of Epac pharmacological modulators on the cellular signaling of ectopically expressed Epac1 and Epac2 isoforms. […] Next, the inventors investigated the effect of 8-CPT-AM on the two Epac2 splice variants, Epac2A and Epac2B (FIGS. 12-13).

[4] = molecular target: T4, Epac1 (Homo sapiens, UniProt O95398); test: biochemical
T4 sequence (O95398 191-923 limits assumed): T2 sequence (O95398 191-923 T823A/F824A limits assumed) with A633T, A634F
Text: as §1

[5] = system: mice; settings: single i.v. bolus 8 mg/kg 5 min before reperfusion; 45 min occlusion, 24 h reperfusion

SMILES	inhibitory activity on Epac1 activation, structure-activity comments [2]	remaining activity at 20 µM [2] [%]	further results
Nc1ncnc2c1ncn2[C@@H]1O[C@@H]2COP(=O)(O)O[C@H]2[C@H]1O [cAMP, cyclic AMP, reference compound]			EC50 [1]: 2.8 ± 1.1 µM
C[C@@H]1CCc2c(cc(Br)c(F)c2Br)N1C=O [(R)-CE3F4, reference compound]			effect on Epac1 GEF (exchange) activity ([4]; 30 μM Sp-8-CPT, 20 μM inhibitor): reduced; IC50 (half-maximal inhibitory concentration), BRET sensor ([2]; not modified by increasing concentrations of cAMP): lower IC50 than AM-001; ratio of infarct size to area-at-risk [5]: failed to reduce infarct size
COC1C2OP(O)(=S)OCC2OC1n1c(Sc2ccc(Cl)cc2)nc2c(N)ncnc21 (stereo not drawn) [Sp-8-CPT, 8-(4-Chlorophenylthio)-2′-O-methyladenosine-3′,5′-cyclic monophosphorothioate, Sp-isomer]			EC50 [4]: 7.5 ± 1.1 µM; Vmax of Sp-8-CPT-activated Epac1 relative to cAMP-activated Epac1 [4]: 2.5 fold; apparent affinity of Epac1, Sp-8-CPT relative to cAMP ([4]; higher for Sp-8-CPT than for cAMP): 1.7 times; EC50 [1]: 5.6 ± 1.1 µM
Nc1c(C(=O)Nc2ccccc2)sc2nc(-c3cccs3)cc(-c3ccccc3)c12 [AM-004]	no significant effect on the inhibitory potency	47	
CO[C@@H]1[C@@H]2OP(=O)(OCOC(C)=O)OC[C@H]2O[C@H]1n1c(Sc2ccc(Cl)cc2)nc2c(N)ncnc21 (stereo partly drawn) [8-CPT-AM, 8-(4-chlorophenylthio)-2′-O-methyladenosine-3′,5′-cyclic monophosphate, acetoxymethyl ester]			activation of Rap1 by agonist ([3]; cells overexpressing Epac1, 10 μM): robust activation of Rap1
Nc1c(C(=O)Nc2ccccc2)sc2nc(-c3cccs3)cc(-c3ccc(F)cc3)c12 [AM-005]	no significant effect on the inhibitory potency	46.9	

Second part, led by results:

inhibitory activity on Epac1 activation, structure-activity comments [2]	remaining activity at 20 µM [2] [%]	SMILES	further results
decreased but not abolished	74	NC(=O)c1sc2nc(-c3cccs3)cc(-c3ccc(F)cc3)c2c1N [AM-006]	
no significant inhibitory activity	93.6	O=c1c2sc3nc(-c4cccs4)cc(-c4ccccc4)c3c2ncn1-c1ccccc1 [AM-002, reference compound]	inhibition of Epac1-induced Rap1 activation [3]: inactive
abolished the inhibitory effect	100	CC(C)NC(=O)c1sc2nc(-c3cccs3)cc(-c3ccc(F)cc3)c2c1N [AM-003, reference compound]	inhibition of Epac1-induced Rap1 activation [3]: inactive
	80.5	Nc1c(C(=O)Nc2ccc(F)cc2)sc2nc3c(c(-c4ccccc4)c12)CCCC3 [AM-007]	
decreased but not abolished	82.4	Nc1c(C(=O)Nc2ccc(F)cc2)sc2nc(-c3cccs3)ccc12 [AM-009]	
low activity	101	Cc1cc(C)c2c(N)c(C(=O)Nc3ccc(F)cc3)sc2n1 [AM-010, reference compound]	
	82.2	Cc1cc(-c2ccccc2)c2c(N)c(C(=O)Nc3ccccc3)sc2n1 [AM-008]	

— patent US20210230179A1, “THIENO[2,3-B]PYRIDINE DERIVATIVES AS EPAC INHIBITORS AND THEIR PHARMACEUTICAL USES” (INSTITUT NATIONAL DE LA SANTE ET DE LA RECHERCHE MEDICALE …, priority 2018, published 2021)
